Data: patent US7491794B2, “Macrocyclic compounds as inhibitors of viral replication” (Intermune, Inc., priority 2003, dated 2009)
Read-outs that look alike come from different tables or passages of the source.

How the values were obtained:
[1] = target: T1, NS3-NS4 protease (Hepatitis C virus genotype 1a, UniProt P27958); assay: NS3-NS4 protease assay / NS3 inhibition assay, Section C; type: biochemical
T1 construct: Recombinant E. coli or Baculovirus full-length NS3 was diluted to 3.33 μM with assay buffer; made in house; host or cells: E. coli or baculovirus (BV) system
Procedure: NS3 complex formation with NS4A-2.
Recombinant E. coli or Baculovirus full-length NS3 was diluted to 3.33 μM with assay buffer and transfered material to an eppendorf tube and place in water bath in 4° C. refrigerator. The appropriate amount of NS4A-2 to 8.3 mM in assay buffer was added to equal the volume of NS3 in step 2.1.1 (conversion factor −3.8 mg/272 μL assay buffer). The material was transferred to an eppendorf tube and place in water bath in 4° C. refrigerator.
After equilibration to 4° C., equal volumes of NS3 and NS4A-2 solutions were combined in an eppendorf tube, mix gently with a manual pipettor, and incubate mixture for 15 minutes in the 4° C. water bath. Final concentrations in the mixture are […] NS3, 4.15 mM NS4A-2 (2485-fold molar excess NS4A-2).
After 15 minutes at 4° C., the NS3/NS4A-2 eppendorf tube was removed and place it in a room temperature water bath for 10 minutes. NS3/NS4A-2 was alliquoted at appropriate volumes and store at −80° C. (E. coli NS3 run at 2 nM in assay, aliquot at 25 μL. BV NS3 run at 3 nM in assay, aliquot at 30 μL).
Step 2.2.5. Sample compounds were dissolved to 10 mM in DMSO then diluted to 2.5 mM (1:4) in DMSO.
Step 2.2.6. The E. coli. NS3/NS4A-2 was diluted to 4 nM NS3 (1:417.5 of […] stock−18 μL 1.67 μM stock+7497 μL assay buffer). The BV NS3/NS4A-2 was diluted to 6 nM NS3 (1:278.3 of 1.67 μM stock−24 μL 1.67 μM stock+6655 μL assay buffer).
Step 2.2.7. Using the manual multichannel pipettor, and being careful not to introduce bubbles into the plate, 50 μL assay buffer were added to wells A01-H01 of a black Costar 96-well polypropylene storage plate.
Step 2.2.8. Using the manual multichannel pipettor, and being careful not to introduce bubbles into the plate, 50 μL of diluted NS3/NS4A-2 from step 2.2.6 were added to wells A02-H12 of plate in step 2.2.7.
Step 2.2.9. Using the manual multichannel pipettor, and being careful not to introduce bubbles into the plate, 25 μL of the wells in drug dilution plate in step 2.2.5 were transferred to corresponding wells in assay plate in step 2.2.8. The tips on multichannel pipettor were changed for each row of compounds transferred.
Step 2.2.10. Using the manual multichannel pipettor, and being careful not to introduce bubbles into the plate, the contents of the wells from the assay plate in step 2.2.9 were mixed by aspirating and dispensing 35 μL of the 75 μL in each well five times. The tips on the multichannel pipettor were changed for each row of wells mixed.
Step 2.2.11. The plate was covered with a polystyrene plate lid, and the plate from step 2.2.10 containing NS3 protease and sample compounds was pre-incubated 10 minutes at room temperature.
While the plate from step 2.2.11 was pre-incubating, the RETS1 substrate was diluted in a 15 mL polypropylene centrifuge tube. The RETS1 substrate was diluted to 8 μM (1:80.75 of 646 μM stock−65 μL 646 μM stock+5184 μL assay buffer).
After the plate in step 2.2.11 was done pre-incubating, and using the manual multichannel, 25 μL of substrate were added to all wells on the plate. The contents of the wells of plate were quickly mixed, as in step 2.2.10, but mixing 65 μL of the 100 μL in the wells.
The plate was read in kinetic mode on the Molecular Devices SpectraMax Gemini XS plate reader. Reader settings: Read time: 30 minutes, Interval: 36 seconds, Reads: 51, Excitation λ: 335 nm, Emission λ: 495 nm, cutoff: 475 nm, Automix: off, Calibrate: once, PMT: high, Reads/well: 6, Vmax pts: 21 or 28/51 depending on length of linearity of reaction.
IC50s were determined using a four parameter curve fit equation, and converted to Ki's using the following Km's:
where Ki=IC50/(1+[S]/Km))

[2] = system: HCV sub-genomic replicon, GS4.3; assay: Quantitation by ELISA of NPTII in the HCV sub-genomic replicon, GS4.3, Section C; type: cell-based; details: Hepatitis C virus
Source text: Quantitation by ELISA of the selectable marker protein, Neomycin phosphotransferase II (NPTII) in the HCV Sub-Genomic Replicon, GS4.3
The HCV sub-genomic replicon (1377/NS3-3′, accession No. AJ242652), stably maintained in HuH-7 hepatoma cells, was created by Lohmann et al. Science 285: 110-113 (1999). The replicon-containing cell culture, designated GS4.3, was obtained from Dr. Christoph Seeger of the Institute for Cancer Research, Fox Chase Cancer Center, Philadelphia, Pa.
GS4.3 cells were maintained at 37° C., 5% CO2, in DMEM (Gibco 11965-092) supplemented with L-glutamine 200 mM (100×) (Gibco25030-081), non-essential amino acids (NEAA)(Biowhittaker 13-114E), heat-inactivated (HI) Fetal Bovine Serum(FBS)(Hyclone SH3007.03) and 750 μg/ml geneticin (G418)(Gibco 10131-035). Cells were sub-divided 1:3 or 4 every 2-3 days.
24 h prior to the assay, GS4.3 cells were collected, counted, and plated in 96-well plates (Costar 3585) at 7500 cells/well in 100 μl standard maintenance medium (above) and incubated in the conditions above. To initiate the assay, culture medium was removed, cells were washed once with PBS (Gibco 10010-023) and 90 μl Assay Medium (DMEM, L-glutamine, NEAA, 10% HI FBS, no G418) was added. Inhibitors were made as a 10× stock in Assay Medium, (3-fold dilutions from 10 μM to […] final concentration, final DMSO concentration 1%), 10 μl were added to duplicate wells, plates were rocked to mix, and incubated as above for 72 h.
An NPTII Elisa kit was obtained from AGDIA, Inc. (Compound direct ELISA test system for Neomycin Phosphotransferase II, PSP 73000/4800). Manufacturer's instructions were followed, with some modifications. 10×PEB-1 lysis buffer was made up to include 500 μM PMSF (Sigma P7626, 50 mM stock in isopropanol). After 72 h incubation, cells were washed once with PBS and 150 μl PEB-1 with PMSF was added per well. Plates were agitated vigorously for 15 minutes, room temperature, then frozen at −70° C. Plates were thawed, lysates were mixed thoroughly, and 100 μl were applied to an NPTII Elisa plate. A standard curve was made. Lysate from DMSO-treated control cells was pooled, serially diluted with PEB-1 with PMSF, and applied to duplicate wells of the ELISA plate, in a range of initial lysate amount of 150u1-2.5 ul. In addition, 100 μl buffer alone was applied in duplicate as a blank. Plates were sealed and gently agitated at room temperature for 2 h. Following capture incubation, the plates were washed 5×300 μl with PBS-T (0.5% Tween-20, PBS-T was supplied in the ELISA kit). For detection, a 1× dilution of enzyme conjugate diluent MRS-2 (5×) was made in PBS-T, into which 1:100 dilutions of enzyme conjugates A and B were added, as per instructions. Plates were resealed, and incubated with agitation, covered, room temperature, for 2 h. The washing was then repeated and 100 μl of room temperature TMB substrate was added. After approximately 30 minutes incubation (room temperature, agitation, covered), the reaction was stopped with 50 μl 3M sulfuric acid. Plates were read at 450 nm on a Molecular Devices Versamax plate reader.
Inhibitor effect was expressed as a percentage of DMSO-treated control signal, and inhibition curves were calculated using a 4-parameter equation: y=A+((B−A)/(1+((C/x)^D))), where C is half-maximal activity or EC50.

[3] = GS4.3 cells, 72 h incubation, read-out: EC50

T1 sequence (P27958 1027-1657): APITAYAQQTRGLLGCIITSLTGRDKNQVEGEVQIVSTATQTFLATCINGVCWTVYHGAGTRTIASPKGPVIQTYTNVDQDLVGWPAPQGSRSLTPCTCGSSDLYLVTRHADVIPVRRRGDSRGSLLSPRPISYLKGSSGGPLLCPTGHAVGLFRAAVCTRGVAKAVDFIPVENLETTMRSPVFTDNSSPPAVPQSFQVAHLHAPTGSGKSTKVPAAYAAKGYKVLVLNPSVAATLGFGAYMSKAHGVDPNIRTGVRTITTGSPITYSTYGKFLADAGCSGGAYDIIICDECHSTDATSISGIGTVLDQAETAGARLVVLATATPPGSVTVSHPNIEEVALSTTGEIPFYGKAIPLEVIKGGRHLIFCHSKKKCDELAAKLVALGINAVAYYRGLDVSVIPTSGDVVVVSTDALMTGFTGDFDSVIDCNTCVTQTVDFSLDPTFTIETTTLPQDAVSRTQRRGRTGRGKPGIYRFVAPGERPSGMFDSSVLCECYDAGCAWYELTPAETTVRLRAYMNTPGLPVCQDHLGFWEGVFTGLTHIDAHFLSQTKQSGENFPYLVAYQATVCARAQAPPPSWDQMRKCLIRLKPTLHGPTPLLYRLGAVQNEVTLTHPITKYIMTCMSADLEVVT

How did the IC50 ([1]; read-out: NS3-NS4 IC50) turn out when `CN(C)S(=O)(=O)NC(=O)[C@@]12C[C@H]1/C=C\CCCCC[C@H](NC(=O)OC(C)(C)C)C(=O)N1C[C@H](OC(=O)N3Cc4ccc(Cl)cc4C3)C[C@H]1C(=O)N2` [Compound 113, (1S,4R,6S,14S,18R)-5-Chloro-1,3-Dihydro-isoindole-2-carboxylic acid 14-tert-butoxycarbonylamino-4-(N,N-dimethylsulfonyl-aminocarbonyl)-2,15-dioxo-3,16-diaza-tricyclo[14.3.0.0^4,6]nonadec-7-en-18-yl ester] was run?
Its IC50 is less than 100 nM.

And the EC50 [2, 3]?
The EC50 was less than 100 nM.

What does the source list for `CC(C)(C)OC(=O)N[C@H]1CCCCC/C=C\[C@@H]2C[C@@]2(C(=O)NS(=O)(=O)NC2CC2)NC(=O)C2C[C@@H](OC(=O)N3Cc4cccc(F)c4C3)CN2C1=O` (stereo partly drawn) [Compound 121]?
IC50 ([1]; read-out: NS3-NS4 IC50): < 100 nM; EC50 [2, 3]: < 100 nM

Which IC50 ([1]; read-out: NS3-NS4 IC50) does the source give for `CC(C)(C)OC(=O)N[C@H]1CCCCC/C=C\[C@@H]2C[C@@]2(C(=O)NS(=O)(=O)Nc2ccc(C(F)(F)F)cc2)NC(=O)[C@@H]2C[C@@H](OC(=O)N3Cc4ccccc4C3)CN2C1=O` [Compound 132, (1S,4R,6S,14S,18R)-1,3-Dihydro-isoindole-2-carboxylic acid 14-tert-butoxycarbonylamino-4-(4-trifluoromethylphenylaminosulfonyl-aminocarbonyl)-2,15-dioxo-3,16-diaza-tricyclo[14.3.0.0^4,6]nonadec-7-en-18-yl ester] here?
The IC50 was less than 100 nM.

What about the EC50 [2, 3] of the same compound?
Its EC50 is less than 100 nM.

Which IC50 ([1]; read-out: NS3-NS4 IC50) does the source give for `CC(C)(C)OC(=O)N[C@H]1CCCCC/C=C\[C@@H]2C[C@@]2(C(=O)NS(=O)(=O)NC2CC2)NC(=O)[C@@H]2C[C@@H](OC(=O)N3CCc4ccccc4C3CN3CCCCC3)CN2C1=O` (stereo partly drawn) [Compound 108] here?
Its IC50 is less than 1000 nM.

And the EC50 [2, 3]?
Its EC50 is less than 100 nM.

With `CN1CCN(S(=O)(=O)NC(=O)[C@@]23C[C@H]2/C=C\CCCCC[C@H](NC(=O)OC(C)(C)C)C(=O)N2C[C@H](OC(=O)N4Cc5ccccc5C4)C[C@H]2C(=O)N3)CC1` [Compound 118, (1S,4R,6S,14S,18R)-1,3-Dihydro-isoindole-2-carboxylic acid 14-tert-butoxycarbonylamino-4-(4-methylpiperazine-1-sulfonyl-aminocarbonyl)-2,15-dioxo-3,16-diaza-tricyclo[14.3.0.0^4,6]nonadec-7-en-18-yl ester] as the compound, how does the IC50 ([1]; read-out: NS3-NS4 IC50) read?
The IC50 was less than 100 nM.

And the EC50 [2, 3]?
Its EC50 is less than 100 nM.

`CC(C)(C)OC(=O)N[C@H]1CCCCC/C=C\[C@@H]2C[C@@]2(C(=O)NS(=O)(=O)N2CCN(C(=O)OCC[Si](C)(C)C)CC2)NC(=O)[C@@H]2C[C@@H](OC(=O)N3Cc4ccccc4C3)CN2C1=O` [Compound 119, (1S,4R,6S,14S,18R)-1,3-Dihydro-isoindole-2-carboxylic acid 14-tert-butoxycarbonylamino-4-(4-(2-trimethylsilylethoxycarbonyl)piperazine-1-sulfonyl-aminocarbonyl)-2,15-dioxo-3,16-diaza-tricyclo[14.3.0.0^4,6]nonadec-7-en-18-yl ester] was tested. Which IC50 [1] did it give?
Its IC50 is less than 100 nM.

What about the EC50 ([2]; 72 h) of the same compound?
The EC50 was less than 100 nM.

What does the source list for `CC(C)(C)OC(=O)N[C@H]1CCCCC/C=C\[C@@H]2C[C@@]2(C(=O)NS(=O)(=O)Nc2ccc(C#N)cc2)NC(=O)[C@@H]2C[C@@H](OC(=O)N3Cc4ccccc4C3)CN2C1=O` [Compound 131, (1S,4R,6S,14S,18R)-1,3-Dihydro-isoindole-2-carboxylic acid 14-tert-butoxycarbonylamino-4-(4-cyanophenylaminosulfonyl-aminocarbonyl)-2,15-dioxo-3,16-diaza-tricyclo[14.3.0.0^4,6]nonadec-7-en-18-yl ester]?
IC50 ([1]; read-out: NS3-NS4 IC50): < 100 nM; EC50 [2, 3]: < 100 nM

Which results are given for `CC(C)(C)OC(=O)N[C@H]1CCCCC/C=C\[C@@H]2C[C@@]2(C(=O)NS(N)(=O)=O)NC(=O)[C@@H]2C[C@@H](OC(=O)N3Cc4ccccc4C3)CN2C1=O` [Compound 122, (1S,4R,6S,14S,18R)-1,3-Dihydro-isoindole-2-carboxylic acid 14-tert-butoxycarbonylamino-4-(aminosulfonyl-aminocarbonyl)-2,15-dioxo-3,16-diaza-tricyclo[14.3.0.0^4,6]nonadec-7-en-18-yl ester]?
IC50 ([1]; read-out: NS3-NS4 IC50): < 100 nM; EC50 [2, 3]: < 100 nM

For `CC(C)(C)OC(=O)N[C@H]1CCCCC/C=C\[C@@H]2C[C@@]2(C(=O)NS(=O)(=O)Nc2ccccc2)NC(=O)[C@@H]2C[C@@H](OC(=O)N3Cc4ccccc4C3)CN2C1=O` [Compound 127, (1S,4R,6S,14S,18R)-1,3-Dihydro-isoindole-2-carboxylic acid 14-tert-butoxycarbonylamino-4-(phenylaminosulfonyl-aminocarbonyl)-2,15-dioxo-3,16-diaza-tricyclo[14.3.0.0^4,6]nonadec-7-en-18-yl ester], which IC50 ([1]; read-out: NS3-NS4 IC50) is on record?
The IC50 was less than 100 nM.

What about the EC50 [2, 3] of the same compound?
The EC50 was less than 100 nM.
